{"source": "paper PMC10761396", "about": "“Evaluation of new alternative methods for the identification of estrogenic, androgenic and steroidogenic effects: a comparative in vitro/in silico study” (Archives of Toxicology, 2023)", "key": {"human (non-selective) ER": {"system": "human (non-selective) ER", "assay": "ER radioligand ([3H]estradiol) receptor-binding assay", "description": "The chemicals were tested for their ability to bind to different targets. […] Chemicals were incubated at 10 µM with cells overexpressing ER or AR for 24 h at 4°C, after which, the binding of the radiolabeled ligand ([^3H]estradiol for ER and [^3H]methyltrienolone for AR) was measured by liquid scintillation counting. An increase or decrease higher than 50% were considered to represent significant effects. Four chemicals were tested in additional incubations at several concentrations up to the maximum soluble concentration for IC50 or EC50 determination for the associated target. Receptor binding was calculated as a % inhibition of the binding of a radioactively labeled ligand specific for each target.\nEach test chemical was tested in a single assay in duplicate."}, "H295R cells": {"system": "H295R cells", "assay": "H295R steroidogenesis assay (oestrogen and androgen production)", "type": "cell-based, human", "details": "Homo sapiens, NCI-H295R, 48 h", "experimental": "The in vitro H295R Steroidogenesis Assay is based on the human adenocarcinoma cell line, NCI-H295R, in which the human steroidogenesis pathway is fully functional (OECD 2022). The effect of the test chemical on the production of 17β-estradiol and testosterone is measured using ERα CALUX and AR CALUX technology.\nThe test chemical was tested in two independent assays, each in triplicate."}, "ER [1]": {"system": "ER", "assay": "ToxCast ER assays and final ToxCast call", "details": "for Final \"true\" call (ToxCast) ER: from active ToxCast assays, cytotoxicity, ToxCast Pathway Model and CERAPP Potency Level; for ToxCast result (ER): overall call from ToxCast data (Supplementary Table 2)", "from_the_text": "(§1) A rich source of data can be found in the EPA's ToxCast database (US EPA). This contains ED data for ~ 1800 chemicals in more than 700 high-throughput assay endpoints that cover a range of high-level cell responses. The US EPA is running an Endocrine Disruption Screening Program (EDSP), with the aim of prioritising chemicals using high-throughput screening methods and computational toxicology approaches to evaluate thousands of chemicals for ED activities. The OECD framework for ED assessment (OECD [2018]) requires animal testing at higher levels, where relevant in vitro alternatives are missing e.g. for developmental, reproductive, neurological and immune effects. However, such follow-up testing is not possible for the cosmetics industry especially in the EU due to the complete animal testing ban which came into force in March 2013 (EU [2009]). Even for other industries, animal models are not suitable for assessing ED effects due to issues relating to ethics, capacity, speed and relevance (Patisaul et al. [2018]). Therefore, chemicals which cannot be evaluated using in vivo method must be assessed using alternative methods e.g. in silico and in vitro methods listed in Levels 1 and 2 of the framework described in the OECD 150 test guideline (OECD [2018]).\n(§2) The performance of different in silico models for ED effects tends to be evaluated on single model for a single effect, such as ER or AR binding, agonism or antagonism (normally by the developer), or a limited number of models using multiple chemicals (Weyrich et al. [2022]). Multi-organisation collaborations have also evaluated multiple models for a specific effect e.g. ER (Mansouri et al. [2016]) and AR (Mansouri et al. [2020]) effects. Therefore, we have conducted a side-by-side comparison of multiple different in silico models covering three pathways in ED, namely ER, AR and aromatase inhibition and compared these with ToxCast-derived final calls, as well as with results from in vitro assays. The efficiency of the in silico models was evaluated as a metric for the ability of the in silico model to generate concrete predictions. […] In vivo data were available for some but not all chemicals; therefore, an evaluation of the performance of the methods was made by comparing the derived overall calls from in silico models with those from the ToxCast database. The final call for each chemical evaluated in the ToxCast assays was made by considering the active-flagged assays and the corresponding cytotoxicity levels, the ToxCast Pathway Model (Browne et al. [2015]) and the CERAPP Potency Level (Mansouri et al. [2016]) for ER effects and the ToxCast Pathway Model (Kleinstreuer et al. [2017]) for AR effects (see Online Resource 1 Supplementary Tables 2, 4 and 6 for the outcome of the ER, AR and aromatase ToxCast assays, additional literature and final calls for each chemical and target)."}, "AR [2]": {"system": "AR", "assay": "ToxCast AR assays and final ToxCast call", "details": "for Final \"true\" call (ToxCast): AR effects, from active assays, cytotoxicity and pathway model; for ToxCast result: AR overall call from Supplementary Table 4; for Final \"true\" call (ToxCast) AR: from ToxCast assays and ToxCast Pathway Model", "from_the_text": "as §1, §2"}, "aromatase [3]": {"system": "aromatase", "assay": "ToxCast aromatase assays (TOX21_Aromatase_Inhibition) and final ToxCast call", "type": "cell-based", "details": "for ToxCast result: aromatase overall ToxCast call; for Final \"true\" call (ToxCast) Aromatase inhibition: from ToxCast assays", "from_the_text": "as §2\nAromatase represents only one enzyme involved in steroidogenesis (the conversion of androgens to oestrogens); therefore, the aromatase assay detects effects on 17β-oestradiol production only. […] It is a cell-based assay in which MCF-7 cells are incubated with the test chemical for 24 h before measuring aromatase activities indirectly via a luciferase-based reporter endpoint which is dependent on the binding of the oestradiol–ER complex to the oestrogen response element. A decrease in luciferase activity can occur as a result of direct inhibition of aromatase (preventing the production of oestradiol) or by preventing oestradiol from binding to the ER and thus the binding to the oestrogen RE which initiates the production of luciferase (Lui et al. [2008])."}, "ER [4]": {"system": "ER", "set-up": "method as in US EPA ToxCast", "details": "ref US EPA ToxCast, cited from earlier work; for ToxCast 1: (Comments), efficacy: borderline: less than 50% efficacy; for ToxCast 1: (Active assays), ER assay listed as active: each listed assay name = active-flagged assay"}, "ER [5]": {"system": "ER", "set-up": "method as in Mansouri et al. 2016", "details": "ref Mansouri et al. 2016; cited from earlier work"}, "AR [6]": {"system": "AR", "set-up": "method as in ToxCast", "details": "ref ToxCast, cited from earlier work; for ToxCast 1: (Active assays), number of positive assays / assays run: ToxCast AR assays"}, "aromatase [7]": {"system": "aromatase", "set-up": "method as in US EPA ToxCast", "details": "ref US EPA ToxCast; cited from earlier work"}, "ERα [8]": {"biological_target": "T1, ERα (Homo sapiens, UniProt P03372)", "T1 sequence (P03372 1-595)": "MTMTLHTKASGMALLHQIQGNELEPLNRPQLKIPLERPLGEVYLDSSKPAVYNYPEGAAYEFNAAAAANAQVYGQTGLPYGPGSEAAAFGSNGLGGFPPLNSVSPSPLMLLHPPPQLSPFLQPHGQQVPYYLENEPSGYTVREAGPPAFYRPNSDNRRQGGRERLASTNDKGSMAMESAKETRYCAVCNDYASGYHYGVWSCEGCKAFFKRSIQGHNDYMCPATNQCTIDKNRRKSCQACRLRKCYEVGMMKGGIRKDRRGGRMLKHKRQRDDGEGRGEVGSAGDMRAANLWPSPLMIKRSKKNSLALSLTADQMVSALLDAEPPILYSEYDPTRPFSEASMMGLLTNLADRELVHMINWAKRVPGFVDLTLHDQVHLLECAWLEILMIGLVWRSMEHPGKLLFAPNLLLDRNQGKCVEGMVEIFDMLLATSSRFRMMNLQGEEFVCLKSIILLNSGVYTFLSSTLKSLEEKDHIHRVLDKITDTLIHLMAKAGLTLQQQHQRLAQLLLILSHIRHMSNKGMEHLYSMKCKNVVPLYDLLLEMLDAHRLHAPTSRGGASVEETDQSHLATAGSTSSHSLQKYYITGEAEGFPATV", "assay": "YES (Yeast oestrogen screen) assay, agonist and antagonist mode", "details": "YES antagonist assay", "description": "The YES/YAS XL (Xtra Lyticase) assay kit from Xenometrix AG (Allschwil, Switzerland) was conducted according to the Supplier’s instructions.\nIn the YES assay, human ERα is integrated in the yeast (Saccharomyces cerevisiae) chromosome, and for the YAS assay human AR is integrated (Routledge and Sumpter 1996; Sohoni and Sumpter 1998). […] This enzyme then converts a yellow substrate to a purple metabolite, which can be measured colorimetrically.\nGrowing yeast cells stably transformed with either hERα (YES) or hAR (YAS) and a β-galactosidase reporter system were exposed to a range of concentrations of each test compound. […] The positive control chemicals for agonistic effects were 17-β estradiol for YES and 5α-dihydrotestosterone for YAS. […] A combination of a fixed concentration of positive control and a range of concentrations of each test chemical were tested. The cells were incubated with each treatment for 18 h at 31°C. The cells were lysed in the presence of the yellow β-galactosidase-substrate, chlorophenol red-β-D-galactopyranoside (CPRG). Yeast cell growth was assessed prior to addition of the lysis buffer by measuring the absorbance at 690 nm. The production of the red metabolite of CPRG was determined by measuring the absorbance at 570 nm. It was corrected for diffraction by cells and debris by a simultaneous measurement at 690 nm. The results were evaluated for estrogenic and androgenic agonistic and antagonistic activity, as well as for yeast growth inhibition or cytotoxicity.\nAn IR value ≥ IR10 in the YES or YAS agonist assay indicates an agonistic effect (IR10 is defined as the IR which is 10% of (IR max - IR solvent) above the IR solvent. An IR value ≤ IR50 in the YES or YAS antagonist assay indicates a possible antagonistic effect (IR50 is defined as 50% of (IR control - IR solvent), where the IR control is at the corresponding fixed concentration of agonist used: 3.3 × 10^-10 M 17-β estradiol and 3.3 × 10^-9 M 5α-dihydrotestosterone, respectively). […]"}, "ERα [9]": {"biological_target": "T1, ERα", "assay": "(anti-)ERα CALUX receptor transactivation assay", "type": "cell-based", "set-up": "expressed in transfected cells; host or cells: CALUX cells (U2-OS is named only for the cytotoxicity CALUX)", "experimental": "The human CALUX® assays were used to measure the impact of test compounds on estrogen and androgen pathways. […] Chemicals can activate (or inactivate, in the case of an antagonistic activity) a ligand-specific pathway by binding to the receptor (ER, AR), after which the receptor-ligand complex binds to specific DNA REs […], resulting in increased (or decreased) cellular expression of a marker protein (e.g., luciferase).\nChemicals were dissolved and diluted in DMSO. […] The cytotoxicity of each test chemical was assessed using the U2-OS based cytotoxicity CALUX bioassay. Concentrations causing >20% reduction of luminescence were considered cytotoxic. […] Luciferase production was quantified by measuring luminescence following addition of luciferin. For antagonist assays, a fixed concentration of receptor agonist was co-incubated with a range of concentrations of the test chemical. […] For the AR assays, dihydrotestosterone was the positive control for agonistic effects and flutamide was the positive control for antagonist effects.\nEach test chemical was tested in triplicates in two independent experiments."}, "aromatase [10]": {"system": "aromatase", "set-up": "method as in Lu et al. [2012]", "details": "recombinant and placental microsomal preparations; ref Lu et al. [2012]; cited from earlier work"}, "ER [11]": {"system": "ER", "set-up": "method as in Browne, et al (2015)", "details": "ref Browne, et al (2015), cited from earlier work"}, "AR [12]": {"system": "AR", "details": "AR pathway model; ref Kleinstreuer et al (2017) 10.1021/acs.chemrestox.6b00347; cited from earlier work"}, "[13]": {"details": "read-out: Steroidogenesis Androgenicity LEC"}, "[14]": {"details": "read-out: Steroidogenesis Estrogenicity LEC"}}, "note": "Read-outs that look alike come from different tables or passages of the source."}
{"smiles": "CCN(CC)c1ccc(C(=O)c2ccccc2C(=O)O)c(O)c1", "note": "[DEABA, 2-(4-(diethylamino)-2-hydroxybenzoyl)benzoic acid]", "values": [{"measurement": "ER binding outcome", "setting": "human (non-selective) ER", "result": "negative"}, {"measurement": "inhibition of control specific binding to the ER", "setting": "human (non-selective) ER; single-dose screening, 10 µM", "result": "less than -25%"}, {"measurement": "minimal effective concentration", "setting": "H295R cells; [13]", "result": "> 100", "unit": "µM"}, {"measurement": "minimal effective concentration", "setting": "H295R cells; [14]", "result": "> 100", "unit": "µM"}, {"measurement": "Final \"true\" call (ToxCast) ER", "setting": "ER [1]", "result": "Negative"}, {"measurement": "ToxCast result (ER)", "setting": "ER [1]", "result": "Negative"}, {"measurement": "Final \"true\" call (ToxCast)", "setting": "AR [2]", "result": "Negative"}, {"measurement": "ToxCast result", "setting": "AR [2]", "result": "Negative"}, {"measurement": "Final \"true\" call (ToxCast) AR", "setting": "AR [2]", "result": "Negative"}, {"measurement": "ToxCast result", "setting": "aromatase [3]", "result": "Negative"}, {"measurement": "Final \"true\" call (ToxCast) Aromatase inhibition", "setting": "aromatase [3]", "result": "Negative"}, {"measurement": "ToxCast 1: (Comments), efficacy", "setting": "ER [4]", "result": "Boarderline: less than 50% efficacy (28.5%)"}, {"measurement": "ToxCast 1: (Active assays), ER assay listed as active", "setting": "ER [4]", "result": "TOX21_ERa_LUC_VM7_Agonist"}, {"measurement": "ToxCast 1: (Active assays), positive/total ER assays", "setting": "ER [4]", "result": "1/8 positive"}, {"measurement": "ToxCast conclusion from assays result", "setting": "ER [4]", "result": "Endocrine Disruption Potential.Significant Estrogen Receptor activity seen"}, {"measurement": "CERAPP Potency Level", "setting": "ER [5]", "result": "Negative"}, {"measurement": "ToxCast conclusion from assays result", "setting": "AR [6]; AR sheet", "result": "Endocrine Disruption Potential.Significant Estrogen Receptor activity seen"}, {"measurement": "efficacy (assays Comments)", "setting": "AR [6]; TOX21_AR_BLA_Antagonist_ratio", "result": "Boarderline: less than 50% efficacy (38.5%)"}, {"measurement": "ToxCast 1: (Active assays), number of positive assays / assays run", "setting": "AR [6]", "result": "1/9 positive"}, {"measurement": "ToxCast (Aromatase assays), positive/total", "setting": "aromatase [7]", "result": "0/2 positive"}, {"measurement": "ER antagonism in the YES assay", "setting": "ERα [8]", "result": "inconclusive"}, {"measurement": "Lowest Effective Concentration (LEC), ER agonism", "setting": "ERα [9]", "result": 56, "unit": "µM"}]}
{"smiles": "CC/C(=C(\\c1ccccc1)c1ccc(OCCNC)cc1)c1ccccc1", "note": "[N-desmethyl-tamoxifen]", "values": [{"measurement": "aromatase inhibitory action", "setting": "aromatase [10]", "result": "potent inhibitors"}]}
{"smiles": "O=C(O)c1ccc(C(=O)O)cc1", "note": "[Terephthalic acid, terephthalic acid]", "values": [{"measurement": "minimal effective concentration", "setting": "H295R cells; [13]", "result": "> 100", "unit": "µM"}, {"measurement": "minimal effective concentration", "setting": "H295R cells; [14]", "result": "> 100", "unit": "µM"}, {"measurement": "Final \"true\" call (ToxCast) ER", "setting": "ER [1]", "result": "Negative"}, {"measurement": "ToxCast result (ER)", "setting": "ER [1]", "result": "Negative"}, {"measurement": "Final \"true\" call (ToxCast)", "setting": "AR [2]", "result": "Negative"}, {"measurement": "ToxCast result", "setting": "AR [2]", "result": "Negative"}, {"measurement": "Final \"true\" call (ToxCast) AR", "setting": "AR [2]", "result": "Negative"}, {"measurement": "ToxCast result", "setting": "aromatase [3]", "result": "Negative"}, {"measurement": "Final \"true\" call (ToxCast) Aromatase inhibition", "setting": "aromatase [3]", "result": "Negative"}, {"measurement": "ToxCast 1: (Comments), efficacy", "setting": "ER [4]", "result": "Boarderline: less than 50% efficacy (31.34%)"}, {"measurement": "ToxCast 1: (Active assays), ER assay listed as active", "setting": "ER [4]", "result": "OT_ER_ERaERb_1440"}, {"measurement": "ToxCast 1: (Active assays), positive/total ER assays", "setting": "ER [4]", "result": "1/18 Positive"}, {"measurement": "ToxCast Pathway Model (AUC)", "setting": "ER [11]; as agonist where given, value above 0.1 = significant interaction", "result": 0}, {"measurement": "ToxCast Pathway Model interaction", "setting": "ER [11]", "result": "NO significant interaction"}, {"measurement": "CERAPP Potency Level", "setting": "ER [5]", "result": "Negative"}, {"measurement": "ToxCast 1: (Active assays), number of positive assays / assays run", "setting": "AR [6]", "result": "0/14 positive"}, {"measurement": "ToxCast Pathway Model (AUC)", "setting": "AR [12]", "result": "AUC = 0, then there is no significant interaction."}, {"measurement": "ToxCast (Aromatase assays), positive/total", "setting": "aromatase [7]", "result": "0/2 positive"}]}
{"smiles": "CC/C(=C(\\c1ccc(O)cc1)c1ccc(OCCNC)cc1)c1ccccc1", "note": "[endoxifen]", "values": [{"measurement": "aromatase inhibitory action", "setting": "aromatase [10]", "result": "potent inhibitors"}]}
